Nine compounds from PMC6868923 (EXCLI Journal, 2019) can be followed below.

Series [1] deals with HepG2.2.15 and Vero cells.
The subject of another series is Hepatitis B virus (HBV). As to the kind of experiment: microbe, parasite or virus in culture. The following applies: read-out: EC50 HBV. It counts as cell-based.
Series [2] has as its system poliovirus type 1 Sabin strain (PV-1). Briefly: microbe, parasite or virus in culture. The following applies: for EC50 / inhibition at 0.0001 µM / inhibition at 0.001 µM / inhibition at 0.01 µM / inhibition at 0.1 µM / inhibition at 1 µM: Enterovirus C, Vero; for EC50: 24 h, read-out: EC50 PV-1; for inhibition at 0.0001 µM / inhibition at 0.001 µM / inhibition at 0.01 µM / inhibition at 0.1 µM / inhibition at 1 µM: N 3, read-out: Inhibition percent relative to control, Polio virus (Median). It counts as cell-based.

Series [3] has as its system Herpes simplex type 1 F strain (HSV-1). As to the kind of experiment: microbe, parasite or virus in culture. It counts as cell-based, Herpes Simplex Virus type 1. Particulars: for EC50 / inhibition at 10 µM / inhibition at 0.0001 µM / inhibition at 0.001 µM / inhibition at 0.01 µM / inhibition at 0.1 µM / inhibition at 1 µM: Human alphaherpesvirus 1, Vero; for EC50: 48 h, read-out: EC50 HSV-1; for inhibition at 10 µM: read-out: Inhibitory effect against HSV-1; for inhibition at 0.0001 µM / inhibition at 0.001 µM / inhibition at 0.01 µM / inhibition at 0.1 µM / inhibition at 1 µM: N 3, read-out: Inhibition percent relative to control, Herpes simplex virus (Median).

Series [4] is described as follows: in vitro. Particulars: human (HepG2.2.15); African green monkey (Vero).
Series [5] is described as follows: in vitro. The following applies: human.
Setting [6] is: Hepatitis B virus, HepG2.2.15, 72 h.

Where “and” joins values, the source holds several entries; their conditions need not be identical. Equal entries are not always repeated. Where two headings read alike, the source gives them in different places. Some results are limits rather than exact numbers.

Consider 24,25-dehydropollinastanol, for which the CC50 (in series [1]; with HepG2.2.15 cells) was greater than 100 µM each time.
With `CC(C)CCC[C@@H](C)[C@H]1CC[C@H]2[C@@H]3CC[C@H]4C[C@@H](O)CC[C@]4(C)[C@H]3CC[C@]12C` [5-α-cholestan-3-β-ol], the CC50 (in series [1]; in the series with HepG2.2.15 cells) was greater than 100 µM each time.
For `CC(C)CCC[C@@H](C)[C@H]1CC[C@H]2C3=CC[C@H]4C[C@@H](O)CC[C@]4(C)[C@H]3CC[C@]12C` [5-α-cholestan-7-en3-β-ol], the CC50 (in series [1]; in the series on HepG2.2.15 cells) was greater than 100 µM throughout.
As to `C[C@@H]1O[C@@H](Oc2c(-c3cc(O)c(O)c(O)c3)oc3cc(O)cc(O)c3c2=O)[C@H](O)[C@H](O)[C@H]1O` [MyrG, myricetin rhamnoside], the EC50 with Hepatitis B virus (HBV) was determined as 0.015 µM. For the same compound, the CC50 (in series [1]; in the series with HepG2.2.15 cells) was greater than 100 µM each time.
Take `C[C@@H]1O[C@@H](OC[C@H]2O[C@H](Oc3c(-c4cc(O)c(O)c(O)c4)oc4cc(O)cc(O)c4c3=O)[C@H](O)[C@@H](O)[C@H]2O)[C@H](O)[C@H](O)[C@H]1O` [MyrGG, myricetin-3-α-O-ramnosil (1→6)-α-galactoside]: in the series with Hepatitis B virus (HBV), the EC50 was found to be 12 µM. Also, the CC50 (in series [1]; with HepG2.2.15 cells) was greater than 100 µM each time.
In the case of `COc1ccc(-c2oc3c(OC)c(OC)c(OC)c(O)c3c(=O)c2OC)cc1O` [PMF, 5,3'-dihydroxy-3,6,7,8,4'-pentamethoxyflavone], the EC50 in the series on Hepatitis B virus (HBV) (setting [6]) is 0.001 µM; in series [2], 1 ± 0.05 µM; in series [3] it was 6.8 ± 0.2 µM. For the same compound, the “Plaque forming units, Polio virus” value in series [2] (0.0001 µM) is 91 PFU and 92 PFU and 89 PFU; in series [2] (0.001 µM), 81 PFU and 80 PFU and 78 PFU; in series [2] (0.01 µM) it was 45 PFU and 41 PFU and 48 PFU; in series [2] (0.1 µM) it was 11 PFU and 16 PFU and 10 PFU. Also, the figures for the inhibition at 0.0001 µM in series [2] (0.0001 µM) and in series [3] (0.0001 µM) were 0.1% and 3.14%, respectively. The inhibition at 0.001 µM in series [2] (0.001 µM) came to 11.5%; in series [3] (0.001 µM), 21.5%. Also, the inhibition at 0.01 µM in series [2] (0.01 µM) stood at 50.4%; in series [3] (0.01 µM), 29.9%. The figures for the inhibition at 0.1 µM in series [2] (0.1 µM) and in series [3] (0.1 µM) were 86.3% and 44.1%, respectively. The figures for the inhibition at 1 µM in series [2] and in series [3] (1 µM) were 97.8% and 64.9%, respectively. Further, the “Plaque forming units, Herpes simplex virus” value was 98 PFU and 91 PFU and 90 PFU in series [3] (0.0001 µM); 82 PFU and 68 PFU and 76 PFU in series [3] (0.001 µM); 68 PFU and 73 PFU and 61 PFU in series [3] (0.01 µM); 48 PFU and 58 PFU and 55 PFU in series [3] (0.1 µM); 34 PFU and 30 PFU and 37 PFU in series [3] (1 µM). Moreover, the inhibition at 10 µM in series [3] was determined as 90%. Further, the CC50 was greater than 100 µM in the series “in vitro [4]” and 10 ± 0.1 µM in “in vitro [5]”.
With `COc1ccc(-c2oc3cc(OC)c(OC)c(O)c3c(=O)c2OC)cc1OC` [PMF-OH, 5-hydroxy-3,6,7,3',4'-pentamethoxyflavone], the EC50 in the series on Hepatitis B virus (HBV) (setting [6]) came out at 0.098 µM; in series [2] it was 1.1 ± 0.03 µM; in series [3], 5.9 ± 0.1 µM. Moreover, the “Plaque forming units, Polio virus” value in series [2] (0.0001 µM) is 92 PFU and 95 PFU and 90 PFU; in series [2] (0.001 µM) it was 76 PFU and 70 PFU and 73 PFU; in series [2] (0.01 µM) it was 42 PFU and 40 PFU and 48 PFU; in series [2] (0.1 µM), 23 PFU and 20 PFU and 26 PFU. Besides, the inhibition at 0.0001 µM in series [2] (0.0001 µM) worked out at 0.1%; in series [3] (0.0001 µM), 1.4%. Also, the values for the inhibition at 0.001 µM in series [2] (0.001 µM) and in series [3] (0.001 µM) were 18.9% and 13.9%, respectively. Moreover, the values for the inhibition at 0.01 µM in series [2] (0.01 µM) and in series [3] (0.01 µM) were 51.9% and 24%, respectively. In addition, the results for the inhibition at 0.1 µM in series [2] (0.1 µM) and in series [3] (0.1 µM) were 74.4% and 40.3%, respectively. In addition, the figures for the inhibition at 1 µM in series [2] and in series [3] (1 µM) were 96.3% and 91.3%, respectively. Besides, the “Plaque forming units, Herpes simplex virus” value in series [3] (0.0001 µM) was 96 PFU and 98 PFU and 90 PFU; in series [3] (0.001 µM), 80 PFU and 82 PFU and 86 PFU; in series [3] (0.01 µM) it was 76 PFU and 73 PFU and 70 PFU; in series [3] (0.1 µM) it was 67 PFU and 55 PFU and 50 PFU; in series [3] (1 µM), 10 PFU and 5 PFU. For the same compound, in series [3], the inhibition at 10 µM is 60%. The CC50 was greater than 100 µM in “in vitro [4]” and 10 ± 0.58 µM in the series “in vitro [5]”.
`C=C(C)C1CCC2(C)CCC3(C)C(=CCC4C5(C)CCC(O)C(C)(C)C5CCC43C)C12` (stereo not drawn) [Upa-12,20(29)-dien-3-ol, lupa-12,20(29)-dien-3-ol]: the CC50 (in series [1]; with HepG2.2.15 cells) was greater than 100 µM each time.
Turning to marcetol, the CC50 (in series [1]; in the series with HepG2.2.15 cells) was greater than 100 µM each time.
